From US10273313B2, “Multimeric mannosides, a process for preparing the same and their uses as a drug” (CENTRE NATIONAL DE LA RECHERCHE SCIENTIFIQUE, priority 2012, dated 2019)

Legend:
[1] = tested on: AIEC strain LF82 adhesion to T84 intestinal epithelial cells; test: Adhesion assay on T84 cells with thiazolylaminomannosides (Example 22.3); assay type: cell-based, Escherichia coli
Method: T84 Intestinal Epithelial cells (overexpressing the receptor CEACAM6) were beforehand incubated for 1 h with the synthetic thiazolylaminomannosides 6-20 (examples 3-17) at different concentrations. Each compound was tested four times at concentrations of 0.1, 1, 10 and 100 μM.
The cells were then infected in the presence of inhibitory compounds by the AIEC strain of reference LF82 for 3 hours at a multiplicity of infection of 10 bacteria to a cell. After 3 h of incubation, the monolayer was washed and the number of AIEC bacteria associated with cells was counted. The level of adhesion of AIEC LF82 strain in the presence of inhibitors (residual adhesion) was expressed relatively to the level of adherence in the absence of any treatment (considered 100%) (FIG. 10).

[2] = tested on: AIEC LF82 bacteria on colonic tissue from transgenic mice expressing human CEACAM6; test: Ex-vivo adhesion assay on colonic tissue of CEABAC10 mice; parameters: species or system CEABAC10 transgenic mice
Method: E. coli strain LF82 was isolated from a chronic ileal lesion of a patient with Crohn's disease (CD). Bacteria were grown routinely in Luria-Bertani (LB) broth overnight at 37° C.
Adhesion assay of AIEC LF82 bacteria were performed using colonic tissue from transgenic mice expressing the human CEACAM6 protein (C. H. Chan, C. P. Stanners “Novel mouse model for carcinoembryonic antigen-based therapy”, Mol Ther. 2004; 9, 775-785). Briefly, 10 to 12-week-old FVB/N CEABAC10 transgenic mice were anesthetized, euthanized by cervical dislocation and colons were removed. Colons were washed twice in phosphate buffer saline (PBS) and were segmented in 4 independent loops of ≈0.6 cm. A volume of 100 μL of LF82 bacteria at 2×10^6 bacteria/mL in PBS or of a mix of LF82 bacteria+D-mannose (1 μmol and 10 μmol) or compound 13 (0.1 μmol and 0.01 μmol) were injected into the loops. Loops were incubated 1 h at 37° C. in an atmosphere containing 5% of CO2, and then opened and washed 4 times in PBS. Tissues were homogenized, appropriately diluted and plated onto Luria-Bertani agar plates containing ampicillin (100 μg/mL) and erythromycin (20 μg/mL) to select AIEC LF82 bacteria.
Entire colons from CEABAC10 mice were collected and washed two times with PBS. The colon was divided in 4 isolated loops and 100 μL of a bacterial suspension containing […] bacteria/mL with or without inhibitory compounds were injected into the loops. D-mannose was tested at a dose of 1 and 10 μmol and monovalent 13 was tested at a dose of 0.01 and 0.1 μmol. After a 1 h-period of incubation, samples were extensively washed and homogenized to numerate adherent bacteria. Bacterial adhesion was expressed as percentages of residual adhesion (100% corresponds to the adhesion in absence of any compound).

[3] = tested on: human Jurkat T-cell line; test: Toxicity of 13 towards Jurkat T-cells; assay type: cell-based; settings: 100 nM
[4] = tested on: Caco-2 cells; test: Blockage of cytotoxic effect of microparticle-FimH, flow cytometry; assay type: cell-based; settings: Caco2
Description: It was shown that upon binding of FimH adhesin to uroplakin UPIIIa its cytoplasmic tail undergoes phosphorylation on a specific threonine residue by casein kinase II, followed by an elevation of intracellular calcium triggering apoptosis (Thumbikat, P.; Berry, R. E.; Zhou, G.; Billips, B. K.; Yaggie, R. E.; Zaichuk, T.; Sun, T.-T.; Schaeffer, A. J.; Klumpp, D. J. PLoS Pathog 2009, 5, e1000415). […] It is needed to mentioned that according to our observations that Caco2 cells, unlike human blood cells, (Bilyy R. O.; Shkandina, T.; Tomin, A.; Muñoz, L E.; Franz, S.; Antonyuk, V.; Kit, Y. Y.; Zirngibl, M.; Fürnrohr, B. G.; Janko, C.; Lauber, K.; Schiller, M.; Schett, G.; Stoika, R. S.; Herrmann, M., J. Biol. Chem. 2012, 287, 496-503) are very quickly converted from apoptotic to secondary necrotic (PI-positive). […]
Cell viability was assessed by a trypan blue exclusion test. […]
Apoptotic cells were identified by using annexin V-FITC and PI, according to the manufacturer's protocol. […] Cells were then resuspended in a solution of annexin V-FITC and PI prepared in Ringer buffer, incubated 30 min at 4° C. in the dark, and analyzed on a FACS scan flow cytometer (BD Biosciences). A minimum of 10,000 events per sample was recorded. […]

[5] = target: FimH (Escherichia coli, UniProt P08191); assay type: binding; settings: competitive ELISA
Method: Journal of the American Society for Mass Spectrometry, 2009. […] Tested compounds were added to wells following with FimH treatment.
Plates were coated with 100 μl of 10 mg/ml solution of RNAse-B in 100 mM carbonate/bicarbonate buffer pH 9.6. […] 2 h. Then washed three times with 10 mM PBS containing 0.05% Tween-20. […] Wells were washed three times with 10 mM PBS+0.05% Tween-20. 100 μl of anti-body conjugated to horseradish peroxidase (1:5000) was added in buffer and incubated for 1 h at room temperature. Then washed three times with 10 mM PBS+0.05% Tween-20. Added 100 μl of TMB and incubated in dark for 2-5 min. The reaction was stopped with 100 μl/well 1N sulfuric acid. Plate absorbance was analyzed at 450 nm using microplate reader.

[6] = tested on: CD-associated E. coli strain AIEC LF82; test: Hemagglutination inhibition (HAI) with AIEC LF82, guinea pig erythrocytes; assay type: cell-based, Escherichia coli
Method: AIEC adhesion to the gut occurs through the binding of FimH adhesins to the mannosylated glycans of intestinal cells. This scenario was first mimicked here with the highly mannosylated glycocalyx of guinea pig erythrocytes.
A two-fold dilution series of the antagonists was added to wells containing guinea pig erythrocytes and AIEC LF82 bacteria. The formation of the cross-linked network (hemagglutination) due to the interaction of the E. coli FimH adhesins with the glycocalyx of the erythrocytes was prevented at a certain concentration of inhibitors. The lowest concentration at which hemagglutination is still inhibited is defined as the inhibition titer of the antagonist. HM was included in the assay to obtain a relative inhibitory concentration (rIC) for the antagonists by dividing the inhibitory concentration (IC) of the substance of interest by the value for HM. In fact, rICs are more accurate than rough inhibition titers to compare the potency of antagonists evaluated in different assays.

Chain of FimH (P08191 22-300): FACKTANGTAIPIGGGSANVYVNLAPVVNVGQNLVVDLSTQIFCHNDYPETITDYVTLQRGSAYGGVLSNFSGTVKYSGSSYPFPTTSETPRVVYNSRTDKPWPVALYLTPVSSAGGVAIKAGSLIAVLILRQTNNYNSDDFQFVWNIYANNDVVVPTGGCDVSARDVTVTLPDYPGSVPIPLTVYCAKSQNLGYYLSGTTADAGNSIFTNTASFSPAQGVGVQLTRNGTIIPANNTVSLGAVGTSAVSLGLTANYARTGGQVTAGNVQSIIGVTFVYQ

In the case of `Cc1nc(-c2cnccn2)sc1C(=O)c1cnc(N[C@H]2OC(CO)[C@@H](O)[C@H](O)C2O)s1` (mixture of isomers) [Compound 13, 2-(α-D-mannopyranosyl)amino-5-(4-methyl-2-(pyrazin-2-yl)thiazole-5-carbonyl)thiazole], the Residual adhesion ([1]; 0.1 μM) was 57.6%, the “Inhibitory effect on adhesion” value ([1]; 100 nM) was “significant inhibitory effect” and the “AIEC remaining attached to the cells (residual adhesion)” value ([1]; 1 μM) was 14%. The Residual adhesion ([1]; 10 μM) was 2.12%, the “rIC relative to HM” value ([1]; dose-dependent inhibition similar to HM at 100-fold lower concentration) was about 0.01 and the “Efficiency relative to D-mannose” value [2] was 100 fold. For the same molecule, the Bacterial adhesion ([2]; 0.1 μmol, 1 h) was “significant decrease”, the “Toxicity towards human blood cells (Jurkat T-cell line)” value [3] was “nontoxic” and the “Effect on amount of dead cell in population” value ([4]; 100 nM alone) was “no significant effect”. The “Dead cells in population” value ([4]; co-treatment with microparticles-FimH and 100 nM) was 16.5%, the “Level of inhibition compared to the HM reference” value [5] was “significantly higher level of inhibition” and the “Concentration blocking FimH binding towards oligomannose glycans” value ([5]; RNAseB substrate) was 5 nM. The “Inhibitory potency in HAI (in words)” value [6] was “second most potent compound”.
